Literature values in patent publication US20220257802A1, “COMPRESSED SOLID COMPOSITION FOR MRI” (Ascelia Pharma AB, priority 2019, published 2022).

Conditions: after oral intake

In the case of `[Mn+2]` [manganese], the “first-pass effect in the liver” value is listed as “up to 98%”.
